The assay concerns freshly isolated human lymphoma B cells. As to the kind of experiment: Rituximab-mediated CDC of freshly isolated human lymphoma B cells, MTT assay. The following applies: 10 mg/ml MβCD 30 minutes; 400 μg/ml rituximab, 10% serum. The class given is cell-based. The protocol:
To extend these observations the influence of cholesterol depletion was studied in freshly isolated human lymphoma B cells. Tumor cells of three mantle cell lymphomas and a small B cell lymphoma were isolated out of bone marrow (10 ml) aspirated from the hip. The cell suspension was diluted twice with PBS (final volume 20 ml). 3 ml of Histopaque-1077 (Sigma Aldrich) was pipetted into two conical centrifuge tubes. 10 ml of diluted bone marrow was slowly layered on the top of Histopaque layer. Probes were centrifuged (400 g, 15 minutes, 25° C.) without brake. The white blood cell ring and plasma were isolated and washed twice with PBS. The leucocyte pellet was resuspeneded in 5 ml medium (RPMI or OptiMEM) and counted in a Bürker chamber using Turk dye. Cells were incubated with either diluent or MβCD (10 mg/ml) for 30 minutes. Treated cells were analyzed for their capacity to bind CD20 mAb as well as sensitivity for rituximab-mediated CDC induction.
For the rituximab-mediated CDC human CD20-positive lymphoma B cells were incubated with either diluent or 10 mg/ml MβCD for 30 minutes. […] The cytotoxic effects were measured in a MTT assay.
For orientation: Formazan colour is commonly taken as a measure of viable cells.

Consider “rituximab: anti-CD20 antibody Rituxan/MabThera, type I”, for which the “rituximab-mediated CDC” value is recorded as “significantly decreased”.
